Results: ChEMBL document CHEMBL1759923, “Preparation, in vitro screening and molecular modelling of symmetrical bis-quinolinium cholinesterase inhibitors--implications for early myasthenia gravis treatment” (Bioorg Med Chem Lett, 2011)
pIC50, pKi: −log10 of the molar value. The source made the active and inactive calls. The calls are words filed in the database; no cut-off is given here.

Assays:
[1] = biological target: T1, Acetylcholinesterase (Homo sapiens, UniProt P22303); experiment: Inhibition of human erythrocyte recombinant AChE at 0.1 mM to […] by modified Ellman's method
[2] = biological target: T1, Acetylcholinesterase; experiment: Inhibition of human erythrocyte recombinant AChE by modified Ellman's method
[3] = biological target: Cholinesterase (Homo sapiens, UniProt P06276); experiment: Inhibition of human plasmatic BChE by modified Ellman's method; set-up: species or system Plasma
[4] = biological target: T1, Acetylcholinesterase; experiment: Inhibition of human erythrocytes recombinant AChE assessed as dissociation constant for enzyme-inhibitor complex
[5] = biological target: T1, Acetylcholinesterase; experiment: Inhibition of human erythrocytes recombinant AChE assessed as dissociation constant for enzyme-inhibitor-substrate complex

T1 sequence (P22303 whole entry): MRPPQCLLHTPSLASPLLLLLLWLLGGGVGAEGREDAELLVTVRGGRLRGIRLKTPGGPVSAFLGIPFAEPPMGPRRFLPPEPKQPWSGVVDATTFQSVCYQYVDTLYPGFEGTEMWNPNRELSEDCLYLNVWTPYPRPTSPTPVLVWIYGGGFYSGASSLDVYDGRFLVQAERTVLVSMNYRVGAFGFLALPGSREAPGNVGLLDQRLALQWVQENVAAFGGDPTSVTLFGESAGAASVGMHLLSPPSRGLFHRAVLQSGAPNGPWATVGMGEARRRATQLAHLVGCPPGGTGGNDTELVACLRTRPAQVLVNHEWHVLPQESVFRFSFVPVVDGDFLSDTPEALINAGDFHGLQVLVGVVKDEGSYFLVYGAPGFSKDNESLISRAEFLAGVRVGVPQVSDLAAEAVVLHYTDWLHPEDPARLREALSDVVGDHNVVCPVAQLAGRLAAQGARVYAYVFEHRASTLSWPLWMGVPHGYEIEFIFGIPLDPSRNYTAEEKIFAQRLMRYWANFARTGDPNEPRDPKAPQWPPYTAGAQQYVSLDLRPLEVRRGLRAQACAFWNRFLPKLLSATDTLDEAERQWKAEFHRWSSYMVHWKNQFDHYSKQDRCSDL
Cholinesterase, sequence (P06276 whole entry): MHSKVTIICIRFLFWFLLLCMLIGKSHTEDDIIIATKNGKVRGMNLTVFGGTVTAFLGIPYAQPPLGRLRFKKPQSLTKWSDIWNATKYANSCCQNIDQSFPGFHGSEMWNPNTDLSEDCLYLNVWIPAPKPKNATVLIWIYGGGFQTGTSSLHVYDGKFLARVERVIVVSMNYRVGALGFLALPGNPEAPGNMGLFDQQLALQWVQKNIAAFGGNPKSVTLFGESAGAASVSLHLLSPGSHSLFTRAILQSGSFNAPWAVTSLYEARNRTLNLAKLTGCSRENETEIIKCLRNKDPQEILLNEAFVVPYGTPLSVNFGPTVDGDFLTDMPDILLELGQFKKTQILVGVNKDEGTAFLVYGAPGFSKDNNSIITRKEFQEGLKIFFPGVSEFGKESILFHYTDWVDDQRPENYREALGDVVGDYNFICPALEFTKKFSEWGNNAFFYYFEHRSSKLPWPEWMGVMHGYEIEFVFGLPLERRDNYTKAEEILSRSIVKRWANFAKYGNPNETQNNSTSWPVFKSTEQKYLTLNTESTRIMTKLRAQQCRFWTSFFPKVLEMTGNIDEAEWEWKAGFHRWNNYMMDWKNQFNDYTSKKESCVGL

Row | Compound | inhibition [1] | pIC50 [2] | pIC50 [3] | pKi [4] | pKi [5]
1 | c1ccc2c(c1)ccc[n+]2Cc1ccc(C[n+]2cccc3ccccc32)cc1 | inactive | – | – | – | –
2 | c1ccc2c(c1)ccc[n+]2CCCCCCC[n+]1cccc2ccccc21 | – | 7.05 | 6.40 | – | –
3 | c1cc(C[n+]2cccc3ccccc32)cc(C[n+]2cccc3ccccc32)c1 | – | 4.40 | 4.70 | – | –
4 | c1ccc(C[n+]2cccc3ccccc32)c(C[n+]2cccc3ccccc32)c1 | – | 4.46 | 5.22 | – | –
5 | C(=C/C[n+]1cccc2ccccc21)/C[n+]1cccc2ccccc21 | – | 5.70 | 6.10 | – | –
6 | c1ccc2c(c1)ccc[n+]2CCCCCCCCC[n+]1cccc2ccccc21 | – | 7.10 | 6.22 | – | –
7 | c1ccc2c(c1)ccc[n+]2CCCCCCCC[n+]1cccc2ccccc21 | – | 7.10 | 6.15 | – | –
8 | c1ccc2c(c1)ccc[n+]2CCOCC[n+]1cccc2ccccc21 | – | 4.46 | 4.32 | – | –
9 | c1ccc2c(c1)ccc[n+]2CCCCCCCCCCC[n+]1cccc2ccccc21 | – | 8.00 | 6.30 | – | –
10 | C[N+](C)(CCNC(=O)C(=O)NCC[N+](C)(C)Cc1ccccc1Cl)Cc1ccccc1Cl [AMBENONIUM DICHLORIDE] | – | – | 5.15 | – | –
11 | c1ccc2c(c1)ccc[n+]2CCCCCCCCCCCC[n+]1cccc2ccccc21 | – | 7.70 | 6.40 | – | –
12 | c1ccc2c(c1)ccc[n+]2CCCCC[n+]1cccc2ccccc21 | – | 5.40 | 4.47 | – | –
13 | c1ccc2c(c1)ccc[n+]2COC[n+]1cccc2ccccc21 | – | 3.38 | 3.06 | – | –
14 | c1ccc2c(c1)ccc[n+]2Cc1ccc2ccc(C[n+]3cccc4ccccc43)cc2c1 | – | 6.10 | 6.70 | 5.64 | 5.09
15 | c1ccc2c(c1)ccc[n+]2CCC[n+]1cccc2ccccc21 | – | 5.05 | 4.89 | – | –
16 | C(=C\C[n+]1cccc2ccccc21)/C[n+]1cccc2ccccc21 | – | 5.22 | 3.51 | – | –
17 | c1ccc2c(c1)ccc[n+]2CCCC[n+]1cccc2ccccc21 | – | 4.42 | 4.49 | – | –
18 | c1ccc2c(c1)ccc[n+]2CCCCCC[n+]1cccc2ccccc21 | – | 4.60 | 5.30 | – | –
